In paper PMC8121435, “Cork-in-bottle mechanism of inhibitor binding to mammalian complex I” (Science Advances, 2021):

Tests used:
Type in all cases: biochemical
[1] = target: T1, yeast (Y. lipolytica) complex I (Yarrowia lipolytica, UniProt Q9B6E8+Q9UUT7+Q9UUU1); assay: NADH:decylubiquinone oxidoreduction by purified Y. lipolytica complex I
T1 sequence (Q9B6E8 1-341): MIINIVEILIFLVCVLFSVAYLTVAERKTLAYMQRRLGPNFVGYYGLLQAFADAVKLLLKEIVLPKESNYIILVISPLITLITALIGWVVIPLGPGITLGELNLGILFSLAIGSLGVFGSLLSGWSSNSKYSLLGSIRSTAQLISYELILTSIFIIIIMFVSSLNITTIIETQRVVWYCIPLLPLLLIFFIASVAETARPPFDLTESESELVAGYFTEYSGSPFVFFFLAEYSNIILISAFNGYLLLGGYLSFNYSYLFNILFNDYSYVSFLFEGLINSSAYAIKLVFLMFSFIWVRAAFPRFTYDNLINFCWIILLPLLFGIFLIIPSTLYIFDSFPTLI
T1 sequence (Q9UUU1 22-466): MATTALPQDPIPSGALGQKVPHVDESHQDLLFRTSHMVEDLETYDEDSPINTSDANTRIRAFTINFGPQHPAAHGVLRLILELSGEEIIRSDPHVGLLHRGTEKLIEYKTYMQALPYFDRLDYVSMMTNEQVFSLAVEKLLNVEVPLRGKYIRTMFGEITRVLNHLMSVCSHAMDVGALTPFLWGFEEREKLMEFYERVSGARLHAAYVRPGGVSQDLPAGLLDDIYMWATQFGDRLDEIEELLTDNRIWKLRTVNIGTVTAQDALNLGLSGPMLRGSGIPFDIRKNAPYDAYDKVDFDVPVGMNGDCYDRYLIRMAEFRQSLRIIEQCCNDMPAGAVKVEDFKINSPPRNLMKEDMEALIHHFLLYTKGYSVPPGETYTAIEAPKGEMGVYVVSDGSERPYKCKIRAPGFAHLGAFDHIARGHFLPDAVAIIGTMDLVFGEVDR
T1 sequence (Q9UUT7 28-210): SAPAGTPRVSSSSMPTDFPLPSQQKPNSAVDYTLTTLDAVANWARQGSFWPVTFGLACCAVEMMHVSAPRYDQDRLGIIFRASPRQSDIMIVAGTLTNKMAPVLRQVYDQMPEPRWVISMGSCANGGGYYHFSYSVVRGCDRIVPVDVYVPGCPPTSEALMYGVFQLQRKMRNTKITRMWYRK
Method: (§1) All catalytic activity assays were conducted at 32°C in 96-well plates using a Molecular Devices Spectramax 384 plus plate reader. Catalysis was initiated by addition of 200 μM NADH and monitored at 340 and 380 nm (ε340–380 = 4.81 mM^−1 cm^−1). Linear rates were measured for all assays, inhibitors were added from dimethyl sulfoxide stock solutions as required, and inhibitor-insensitive rates (using either 1 μM piericidin A or 1.4 μM IACS-2858) were subtracted from each measured rate. Membrane samples were prepared as described previously ([17], [20], [59], [60]), diluted to 20 μg ml^−1 in 10 mM tris-SO4 (pH 7.5) and 250 mM sucrose, and supplemented with 3 μM horse heart cytochrome c (except for P. denitrificans, for which the activity is unaffected by the addition). Mouse, bovine, and yeast (Y. lipolytica) complex I were purified as described previously ([17], [20], [59]); diluted to 0.5 nM in 20 mM tris-HCl (pH 7.5), 0.15% asolectin, and 0.15% CHAPS; and assayed using either 200 μM dQ or 200 μM ubiquinone-1 (Sigma-Aldrich). Complex I was purified from P. denitrificans strain Pd1222 ([61]) and provided by O. D. Jarman (MRC Mitochondrial Biology Unit, University of Cambridge); it was assayed likewise but in 10 mM MES-HCl (pH 6.5), 25 mM NaCl, and 2 mM CaCl2. […]

[2] = target: T2, complex I in mitochondrial membranes (Mus musculus, UniProt P03888+Q91WD5+Q9DC70); assay: NADH oxidation in mouse mitochondrial membranes; conditions: M. musculus membranes 20 μg ml−1; ± SE
T2 construct: from tissue; host or cells: mouse (C57BL/6) heart mitochondria
Method: as §1

[3] = target: T3, complex I in mitochondrial membranes (Bos taurus, UniProt P03887+P17694+P42026); assay: NADH oxidation in bovine mitochondrial membranes; conditions: B. taurus membranes 20 μg ml−1; ± SE
T3 construct: Complex I from bovine heart were prepared; from tissue; host or cells: bovine heart mitochondria
Method: as §1

[4] = target: T4, complex I in mitochondrial membranes (Yarrowia lipolytica, UniProt Q9B6E8+Q9UUT7+Q9UUU1); assay: NADH oxidation in Y. lipolytica mitochondrial membranes
T4 sequence (Q9B6E8 1-341): T1 sequence (Q9B6E8 1-341)
T4 sequence (Q9UUU1 22-466): T1 sequence (Q9UUU1 22-466)
T4 sequence (Q9UUT7 28-210): T1 sequence (Q9UUT7 28-210)
Method: as §1

complex I in bovine SMPs = target: T5, complex I in bovine SMPs (Bos taurus, UniProt P03887+P17694+P42026); assay: Forward electron transport (NADH oxidation) in bovine heart submitochondrial particles; conditions: NADH oxidation rate, ± SE
T5 construct: Complex I from bovine heart were prepared; from tissue; host or cells: bovine heart mitochondria
Method: as §1

CS(=O)(=O)C1CCN(c2cccc(Cn3cc(-c4nc(-c5ccc(OC(F)(F)F)cc5)no4)ccc3=O)c2)CC1 [IACS-2858, 1-(3-(4-(Methylsulfonyl)piperidin-1-yl)benzyl)-5-(3-(4-(trifluoromethoxy)phenyl)-1,2,4-oxadiazol-5-yl)pyridin-2(1H)-one] was tested, and the IC50 [1] was 358 ± 37 nM, the IC50 [2] was 1.4 ± 0.1 nM and the IC50 [3] was 3.4 ± 0.3 nM. It also gave an IC50 [4] of about 7.2 µM and an IC50 (complex I in bovine SMPs) of 6.4 ± 0.2 nM.
